Key:
[1] = test system: ApoB secretion, HepG2 cells; experiment: Quantification of the secretion of ApoB (HepG2 cells, immunoprecipitation, scintillation counting); format: cell-based; settings: 24 hours of incubation; for IC50: Homo sapiens, HepG2, 24 h
Procedure, shortened: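 HepG2 cells in MEM Rega 3 with 10% FCS were treated at 70% confluency with compound (DMSO 0.4% final) for 24 h. Medium ApoB was immunoprecipitated with sheep anti-apoB then rabbit anti-sheep antibody (24 h each, 8° C), and pellet radioactivity was counted by liquid scintillation to give IC50.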

[2] = target: MTP (Homo sapiens, UniProt P55157); experiment: MTP assay (triglyceride transfer from donor to acceptor vesicles); format: biochemical; settings: MTP activity, 37° C.
MTP, sequence (P55157 19-894, species assumed): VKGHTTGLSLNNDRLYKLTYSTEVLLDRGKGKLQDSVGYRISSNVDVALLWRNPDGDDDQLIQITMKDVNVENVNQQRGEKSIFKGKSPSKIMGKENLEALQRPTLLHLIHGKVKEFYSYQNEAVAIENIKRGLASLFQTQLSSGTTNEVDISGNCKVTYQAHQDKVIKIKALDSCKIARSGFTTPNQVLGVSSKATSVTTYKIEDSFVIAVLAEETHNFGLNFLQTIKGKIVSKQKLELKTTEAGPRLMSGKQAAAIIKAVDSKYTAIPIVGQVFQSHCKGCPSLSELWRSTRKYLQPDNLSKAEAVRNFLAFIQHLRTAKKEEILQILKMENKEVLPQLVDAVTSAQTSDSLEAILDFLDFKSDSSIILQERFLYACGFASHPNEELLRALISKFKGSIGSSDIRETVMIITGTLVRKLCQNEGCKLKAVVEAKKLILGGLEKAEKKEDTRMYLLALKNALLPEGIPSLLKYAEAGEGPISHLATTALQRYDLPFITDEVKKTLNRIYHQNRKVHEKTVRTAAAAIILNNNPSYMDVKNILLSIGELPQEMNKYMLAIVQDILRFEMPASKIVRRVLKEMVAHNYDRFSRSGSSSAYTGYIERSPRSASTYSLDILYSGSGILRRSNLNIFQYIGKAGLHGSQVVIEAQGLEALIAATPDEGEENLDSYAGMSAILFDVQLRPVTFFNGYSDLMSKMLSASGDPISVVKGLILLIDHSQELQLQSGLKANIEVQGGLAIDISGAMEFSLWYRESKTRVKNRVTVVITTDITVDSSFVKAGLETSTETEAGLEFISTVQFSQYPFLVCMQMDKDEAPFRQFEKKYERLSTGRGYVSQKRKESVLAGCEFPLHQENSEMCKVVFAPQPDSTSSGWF
MTP, sequence (P07237 18-508 partner, species assumed): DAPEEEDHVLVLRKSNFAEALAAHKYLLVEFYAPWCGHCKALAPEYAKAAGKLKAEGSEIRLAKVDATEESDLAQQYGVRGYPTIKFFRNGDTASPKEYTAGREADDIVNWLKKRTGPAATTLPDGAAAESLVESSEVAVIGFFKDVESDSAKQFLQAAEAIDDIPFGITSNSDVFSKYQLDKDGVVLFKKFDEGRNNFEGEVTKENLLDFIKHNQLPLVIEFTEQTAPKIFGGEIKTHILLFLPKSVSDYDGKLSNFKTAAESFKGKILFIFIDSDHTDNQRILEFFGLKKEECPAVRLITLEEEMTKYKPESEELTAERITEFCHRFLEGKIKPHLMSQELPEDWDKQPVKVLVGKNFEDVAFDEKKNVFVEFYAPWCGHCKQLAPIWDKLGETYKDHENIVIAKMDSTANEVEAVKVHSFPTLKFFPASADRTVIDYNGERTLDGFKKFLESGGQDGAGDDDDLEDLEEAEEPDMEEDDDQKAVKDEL
Procedure: MTP activity was measured using an assay similar to one described by J. R. Wetterau and D. B. Zilversmit in Chemistry and Physics of Lipids (1985) 38, 205-222. In order to prepare the donor and acceptor vesicles, the appropriate lipids in chloroform were put into a glass test tube and dried under a stream of nitrogen. A buffer containing 15 mM Tris-HCl (pH 7.5), 1 mM ethylenediamine tetra-acetic acid, 40 mM NaCl, 0.02% NaN3 (assay buffer) was added to the dried lipid. The mixture was vortexed briefly and the lipids were then allowed to hydrate for 20 minutes on ice. Vesicles were then prepared by bath sonication (using a Branson 2200 device) at room temperature for at most 15 minutes. Butylated hydroxytoluene was included in all vesicle preparations at a concentration of 0.1%. The lipid transfer assay mixture contained donor vesicles (40 nmole phosphatidylcholine, 7.5 mole % cardiolipin and 0.25 mole % glycerol tri[1-^14C]-oleate), acceptor vesicles (240 nmol phosphatidylcholine) and 5 mg bovine serum albumin in a total volume of 675 μl in a 1.5 ml microcentrifuge tube. Test compounds were added dissolved in dimethylsulfoxide (0.13% final concentration). After 5 minutes of pre-incubation at 37° C., the reaction was started by the addition of MTP in 100 μl of a dialysis buffer. The reaction was stopped by the addition of 400 μl […] (DEAE)-52 cellulose (Sephadex) pre-equilibrated in 15 mM Tris-HCl (pH 7.5), 1 mM ethylenediamine tetra-acetic acid and 0.02% NaN3 (1:1 volume/volume). The mixture was agitated for 4 minutes and centrifuged for 2 minutes at maximum speed in an Eppendorf centrifuge (4° C.) to pellet the DEAE-52-bound donor vesicles. An aliquot of the supernatant containing the acceptor liposomes was counted and the [^14C]-counts were used to calculate the percent triglyceride transfer from donor to acceptor vesicles.
Resulting IC50 values are enumerated in Table C.2 for some of the above-referred compounds.

Structure (SMILES) | IC50 [2] | IC50 [1] | other results
CCCOC(=O)C(c1ccccc1)N1CCN(c2ccc(NC(=O)c3ccccc3-c3ccc(C(F)(F)F)cc3)cc2)CC1 (centres unmarked) [Co. No. 62, propyl-phenyl-4-[4-[[[4′-(trifluoromethyl)[1,1′-biphenyl]-2-yl]carbonyl]amino]phenyl]-1-piperazineacetate] | 10.5 nM | 64.6 nM | melting point: 151 °C
CCCCCNC(=O)C(c1ccccc1)N1CCC(c2ccc(NC(=O)c3ccccc3-c3ccc(C(F)(F)F)cc3)cc2)CC1 (centres unmarked) [Co. No. 75] | 8.38 nM | 11.4 nM | –
CCOC(=O)C(c1ccccc1)N1CCC(c2ccc(NC(=O)c3ccccc3-c3ccc(C(F)(F)F)cc3)cc2)CC1 (single isomer, unassigned) [Co. No. 265] | 5.62 nM | – | –
CCOC(=O)C(c1ccccc1)N1CCC(c2ccc(NC(=O)c3ccccc3-c3ccc(C(F)(F)F)cc3)cc2)CC1 (single isomer, unassigned) [Co. No. 264] | 31.8 nM | – | –
COC(=O)C(c1ccccc1)N1CCN(c2ccc(NC(=O)c3ccccc3-c3ccsc3)cc2)CC1 (centres unmarked) [Co. No. 267] | – | – | melting point: 150 °C
O=C(Nc1ccc(N2CCC(C(C(=O)NCc3ccccc3)c3ccccc3)CC2)cc1)c1cccc2c1-c1ccccc1C2 (centres unmarked) [Co. No. 2] | – | 106 nM | melting point: 202 °C
CCNC(=O)C(c1ccccc1)N1CCN(c2ccc(NC(=O)c3cccc(C)c3-c3ccc(C(F)(F)F)cc3)cc2)CC1 (centres unmarked) [Co. No. 199] | 4.63 nM | – | –
CCNC(=O)C(c1ccccc1)N1CCN(c2ccc(NC(=O)c3ccccc3-c3ccc(C(F)(F)F)cc3)cc2)CC1 (centres unmarked) [Co. No. 54, N-[4-[4-[2-(ethylamino)-2-oxo-1-phenylethyl]-1-piperazinyl]phenyl]-4′-(trifluoromethyl)-[1,1′-biphenyl]-2-carboxamide] | 5.38 nM | 7.89 nM | melting point: 123 °C
O=C(Nc1ccc(N2CCC(C(C(=O)NCc3ccccc3)c3ccccc3)CC2)cc1)c1ccccc1-c1ccccc1 (centres unmarked) [Co. No. 3] | 18.4 nM | 25.6 nM | –
COC(=O)C(c1ccccc1)N1CCN(c2ccc(NC(=O)c3ccccc3-c3cccnc3)cc2)CC1 (centres unmarked) [Co. No. 270] | – | – | melting point: 194 °C
COC(=O)C(c1ccccc1)C1CCN(c2ccc(NC(=O)c3ccccc3-c3ccc(C(C)C)cc3)cc2)CC1 (centres unmarked) [Co. No. 232] | 25 nM | < 30 nM | –
COC(=O)C(c1ccccc1)C1CCN(c2ccc(NC(=O)c3ccccc3-c3ccc(C(F)(F)F)cc3)cc2)CC1 (stereo not drawn) [Co. No. 39, methyl α-phenyl-1-[4-[[[4′-(trifluoromethyl)-[1,1′-biphenyl]-2-yl]carbonyl]amino]phenyl]-4-piperidineacetate] | 12 nM | – | pIC50 ([1]; listed as 39): 7.791; melting point: 151 °C
CCCNC(=O)C(c1ccccc1)C1CCN(c2ccc(NC(=O)c3ccccc3CSc3ccccc3)cc2)CC1 (centres unmarked) [Co. No. 16] | 208 nM | 83.8 nM | –
O=C(Nc1ccc(N2CCN(C(C(=O)NCc3ccccc3)c3ccccc3)CC2)cc1)c1ccccc1-c1ccc(C(F)(F)F)cc1 (centres unmarked) [Co. No. 61] | 4.79 nM | 3.85 nM | –
COC(=O)C(c1ccccc1)C1CCN(c2ccc(NC(=O)c3ccccc3-c3ccc(C(F)(F)F)cc3)cc2)CC1 (centres unmarked) [Co. No. 241] | 10.4 nM | – | pIC50 ([1]; listed as 241): 7.578
COC(=O)C(c1ccccc1)N1CCC(c2ccc(NC(=O)c3ccccc3-c3ccc(C(F)(F)F)cc3)cc2)CC1 (single isomer, unassigned) [Co. No. 229] | 52.6 nM | – | pIC50 [1]: 7.409; melting point: 158 °C
O=C(Nc1ccc(N2CCN(C(C(=O)NCC(F)(F)F)c3ccccc3)CC2)cc1)c1ccccc1-c1ccc(C(F)(F)F)cc1 (centres unmarked) [Co. No. 1, N-[4-[4-[2-oxo-1-phenyl-2-[(2,2,2-trifluoroethyl)amino]ethyl]-1-piperazinyl]-phenyl]-4′-(trifluoromethyl)-[1,1′-biphenyl]-2-carboxamide] | 13.7 nM | 7.89 nM | melting point: 208 °C
CC(C)CNC(=O)C(c1ccccc1)N1CCC(c2ccc(NC(=O)c3ccccc3-c3ccc(C(F)(F)F)cc3)cc2)CC1 (centres unmarked) [Co. No. 74] | – | ≤ 30 nM | –
CCC(CC)OC(=O)C(c1ccccc1)N1CCC(c2ccc(NC(=O)c3ccccc3-c3ccc(C(F)(F)F)cc3)cc2)CC1 (centres unmarked) [Co. No. 224] | – | 557 nM | –
CCCNC(=O)C(c1ccccc1)C1CCN(c2ccc(NC(=O)c3cccc4c3Cc3ccccc3-4)cc2)CC1 (centres unmarked) [Co. No. 14] | – | ≥ 3000 nM | –

The next lines start with results.

IC50 [2] | IC50 [1] | Structure (SMILES) | other results
1.98 nM | – | COC(=O)C(c1ccccc1)N1CCN(c2ccc(NC(=O)c3ccccc3-c3ccc(C(F)(F)F)cc3)cc2)CC1 (centres unmarked) [Co. No. 239] | pIC50 ([1]; listed as 239): 7.855
8.65 nM | 21.6 nM | COC(=O)C(c1ccccc1)N1CCC(c2ccc(NC(=O)c3ccccc3-c3ccc(C(F)(F)F)cc3)cc2)CC1 (centres unmarked) [Co. No. 41, methylphenyl-4-[4-[[[4′-(trifluoromethyl)[1,1′-biphenyl]-2-yl]carbonyl]amino]phenyl]-1-piperidineacetate] | melting point: 138 °C
7.31 nM | 4.62 nM | O=C(Nc1ccc(N2CCC(C(C(=O)NCc3ccccc3)c3ccccc3)CC2)cc1)c1ccccc1-c1ccc(C(F)(F)F)cc1 (centres unmarked) [Co. No. 11] | –
11.5 nM | – | COC(=O)C(c1ccccc1)C1CCN(c2ccc(NC(=O)c3ccccc3-c3ccc(C(F)(F)F)cc3)cc2)CC1 (centres unmarked) [Co. No. 242] | pIC50 ([1]; listed as 242): 8.133
4.27 nM | ≤ 30 nM | CCCNC(=O)C(c1ccccc1)N1CCN(c2ccc(NC(=O)c3ccccc3-c3ccc(C(F)(F)F)cc3)cc2)CC1 (centres unmarked) [Co. No. 55] | –
– | 294 nM | COC(=O)C(c1ccccc1)N1CCN(c2ccc(NC(=O)c3ccccc3-c3ccccc3)cc2)CC1 (stereo not drawn) [Co. No. 52, methyl 4-[4-[([1,1′-biphenyl]-2-ylcarbonyl)amino]phenyl]-α-phenyl-1-piperazineacetate] | melting point: 125 °C
> 3000 nM | 241 nM | O=C(Nc1ccc(N2CCC(C(C(=O)NCc3ccccc3)c3ccccc3)CC2)cc1)c1ccccc1Cc1ccccc1 (centres unmarked) [Co. No. 10] | –
4.53 nM | – | COC(=O)C(c1ccccc1)N1CCN(c2ccc(NC(=O)c3ccccc3-c3ccc(C(F)(F)F)cc3)cc2)CC1 (stereo not drawn) [Co. No. 40, methyl α-phenyl-4-[4-[[[4′-(trifluoromethyl)[1,1′-biphenyl]-2-yl]carbonyl]amino]phenyl]-1-piperazineacetate] | pIC50 ([1]; listed as 40): 7.586
6.87 nM | 7.57 nM | C=CCNC(=O)C(c1ccccc1)N1CCN(c2ccc(NC(=O)c3ccccc3-c3ccc(C(F)(F)F)cc3)cc2)CC1 (centres unmarked) [Co. No. 57] | –
2.08 nM | – | COC(=O)C(c1ccccc1)C1CCN(c2ccc(NC(=O)c3ccccc3-c3ccc(C(C)(C)C)cc3)cc2)CC1 (centres unmarked) [Co. No. 203] | pIC50 ([1]; listed as 203): 8.333
3.2 nM | 2.05 nM | CCNC(=O)C(c1ccccc1)C1CCN(c2ccc(NC(=O)c3ccccc3-c3ccc(C(C)(C)C)cc3)cc2)CC1 (centres unmarked) [Co. No. 87] | –
198 nM | 108 nM | O=C(Nc1ccc(N2CCC(C(C(=O)NCc3ccccc3)c3ccccc3)CC2)cc1)c1ccccc1CSc1ccccc1 (centres unmarked) [Co. No. 6] | –
3.64 nM | – | COC(=O)C(c1ccccc1)N1CCC(c2ccc(NC(=O)c3ccccc3-c3ccc(C(F)(F)F)cc3)cc2)CC1 (single isomer, unassigned) [Co. No. 230] | pIC50 [1]: 8.31
363 nM | 261 nM | O=C(Nc1ccc(N2CCC(C(C(=O)NCc3ccccc3)c3ccccc3)CC2)cc1)c1ccccc1COc1ccccc1 (centres unmarked) [Co. No. 7] | –
8.41 nM | 19.2 nM | CCOC(=O)C(c1ccccc1)N1CCC(c2ccc(NC(=O)c3ccccc3-c3ccc(C(F)(F)F)cc3)cc2)CC1 (centres unmarked) [Co. No. 222] | –
– | 178 nM | CCOC(=O)C(CN1CCN(c2ccc(NC(=O)c3ccccc3-c3ccc(C(F)(F)F)cc3)cc2)CC1)c1ccccc1 (centres unmarked) [Co. No. 81, ethylphenyl-4-[4-[[[4′-(trifluoromethyl)[1,1′-biphenyl]-2-yl]carbonyl]amino]-phenyl]-1-piperazine propanoate] | melting point: 195 °C
8.28 nM | ≤ 30 nM | O=C(Nc1ccc(N2CCN(C(C(=O)NCc3ccccn3)c3ccccc3)CC2)cc1)c1ccccc1-c1ccc(C(F)(F)F)cc1 (centres unmarked) [Co. No. 60] | –
15.9 nM | ≤ 30 nM | CC(C)CNC(=O)C(c1ccccc1)N1CCN(c2ccc(NC(=O)c3ccccc3-c3ccc(C(F)(F)F)cc3)cc2)CC1 (centres unmarked) [Co. No. 58] | –

Source: patent US8354402B2, “Polyarylcarboxamides useful as lipid lowering agents” (Janssen Pharmaceutica N.V., priority 2000, dated 2013)
